Measurements published in patent US11331369B2, “Endoparasitic depsipeptides” (Zoetis Services LLC, priority 2017, dated 2022).

How the values were obtained:
Type in all cases: cell-based
[1] = test system: 4th stage larvae (L4) of Dirofilaria immitis; assay: Dirofilaria immitis, L4 Stage (DiL4) In Vitro Assay; conditions: Dirofilaria immitis, 72 h, read-out: DiL4 Minimum Effective Dose (MED), approximately 72 hours incubation; L4 larvae assessed for survival or paralysis
[2] = test system: third stage larvae of Haemonchus contortus; assay: Haemonchus contortus L3 (HcL3) Assay; conditions: 96 h, read-out: HcL3 Minimum Effective Dose (MED)
[3] = test system: microfilariae of Dirofilaria immitis; assay: Dirofilaria immitis, Microfilaria (DiMF) In vitro Assay; conditions: 72 h, read-out: DiMF Minimum Effective Dose (MED), approximately 72 hours incubation, microfilariae assessed for survival or paralysis

SMILES: CCOc1ccn(Cc2ccc(C[C@H]3OC(=O)[C@H](CC(C)C)N(C)C(=O)[C@@H](C)OC(=O)[C@H](CC(C)C)N(C)C(=O)[C@@H](Cc4ccc(Cn5nccc5OCC)cc4)OC(=O)[C@H](CC(C)C)N(C)C(=O)[C@@H](C)OC(=O)[C@H](CC(C)C)N(C)C3=O)cc2)n1 [Example 1a-36, (3S,6R,9S,12R,15S,18R,21S,24R)-6-(4-((3-ethoxy-1H-pyrazol-1-yl)methyl)benzyl)-18-(4-((5-ethoxy-1H-pyrazol-1-yl)methyl)benzyl)-3,9,15,21-tetraisobutyl-4,10,12,16,22,24-hexamethyl-1,7,13,19-tetraoxa-4,10,16,22-tetraazacyclotetracosan-2,5,8,11,14,17,20,23-octaone]
- minimal effective concentration [1]: 0.0001 to 0.001 µM
- minimal effective concentration [2]: 1 to 10 µM

SMILES: COCc1ccn(Cc2ccc(C[C@H]3OC(=O)[C@H](CC(C)C)N(C)C(=O)[C@@H](C)OC(=O)[C@H](CC(C)C)N(C)C(=O)[C@@H](Cc4ccc(Cn5nccc5COC)cc4)OC(=O)[C@H](CC(C)C)N(C)C(=O)[C@@H](C)OC(=O)[C@H](CC(C)C)N(C)C3=O)cc2)n1 [Example 1a-37, (3S,6R,9S,12R,15S,18R,21S,24R)-3,9,15,21-tetraisobutyl-6-(4-((3-(methoxymethyl)-1H-pyrazol-1-yl)methyl)benzyl)-18-(4-((5-(methoxymethyl)-1H-pyrazol-1-yl)methyl)benzyl)-4,10,12,16,22,24-hexamethyl-1,7,13,19-tetraoxa-4,10,16,22-tetraazacyclotetracosan-2,5,8,11,14,17,20,23-octaone]
- minimal effective concentration [1]: 0.0001 to 0.001 µM
- minimal effective concentration [2]: 1 to 10 µM

SMILES: Cc1nn(Cc2ccc(C[C@H]3OC(=O)[C@H](CC(C)C)N(C)C(=O)[C@@H](C)OC(=O)[C@H](CC(C)C)N(C)C(=O)[C@@H](Cc4ccc(Cn5nc(C)c(O)c5C)cc4)OC(=O)[C@H](CC(C)C)N(C)C(=O)[C@@H](C)OC(=O)[C@H](CC(C)C)N(C)C3=O)cc2)c(C)c1O [Example 1b-16, (3S,6R,9S,12R,15S,18R,21S,24R)-6,18-bis({4-[(4-hydroxy-3,5-dimethyl-1H-pyrazol-1-yl)methyl]phenyl}methyl)-4,10,12,16,22,24-hexamethyl-3,9,15,21-tetrakis(2-methylpropyl)-1,7,13,19-tetraoxa-4,10,16,22-tetraazacyclotetracosan-2,5,8,11,14,17,20,23-octaone]
- minimal effective concentration [1]: 0.0001 to 0.001 µM
- minimal effective concentration [2]: 1 to 10 µM

SMILES: CC(C)C[C@H]1C(=O)O[C@H](Cc2ccc(Cn3cc(F)cn3)cc2)C(=O)N(C)[C@@H](CC(C)C)C(=O)O[C@H](C)C(=O)N(C)[C@@H](CC(C)C)C(=O)O[C@H](Cc2ccc(Cn3cc(F)cn3)cc2)C(=O)N(C)[C@@H](CC(C)C)C(=O)O[C@H](C)C(=O)N1C [Example 1b-17, (3S,6R,9S,12R,15S,18R,21S,24R)-6,18-bis(4-((4-fluoro-1H-pyrazol-1-yl)methyl)benzyl)-3,9,15,21-tetraisobutyl-4,10,12,16,22,24-hexamethyl-1,7,13,19-tetraoxa-4,10,16,22-tetraazacyclotetracosan-2,5,8,11,14,17,20,23-octaone]
- minimal effective concentration [1]: 0.0001 to 0.001 µM
- minimal effective concentration [2]: 1 to 10 µM

SMILES: C#Cc1cnn(Cc2ccc(C[C@H]3OC(=O)[C@H](CC(C)C)N(C)C(=O)[C@@H](C)OC(=O)[C@H](CC(C)C)N(C)C(=O)[C@@H](Cc4ccc(Cn5cc(C#C)cn5)cc4)OC(=O)[C@H](CC(C)C)N(C)C(=O)[C@@H](C)OC(=O)[C@H](CC(C)C)N(C)C3=O)cc2)c1 [Example 1b-32, (3S,6R,9S,12R,15S,18R,21S,24R)-6,18-bis({4-[(4-ethynyl-1H-pyrazol-1 yl)methyl]phenyl}methyl)-4,10,12,16,22,24-hexamethyl-3,9,15,21-tetrakis(2-methylpropyl)-1,7,13,19-tetraoxa-4,10,16,22-tetraazacyclotetracosan-2,5,8,11,14,17,20,23-octaone]
- minimal effective concentration [1]: 0.0001 to 0.001 µM
- minimal effective concentration [2]: 10 to 100 µM

SMILES: CCC#Cc1cnn(Cc2ccc(C[C@H]3OC(=O)[C@H](CC(C)C)N(C)C(=O)[C@@H](C)OC(=O)[C@H](CC(C)C)N(C)C(=O)[C@@H](Cc4ccccc4)OC(=O)[C@H](CC(C)C)N(C)C(=O)[C@@H](C)OC(=O)[C@H](CC(C)C)N(C)C3=O)cc2)c1 [Example 2-77, (3S,6R,9S,12R,15S,18R,21S,24R)-6-benzyl-18-(4-((4-(but-1-yn-1-yl)-1H-pyrazol-1-yl)methyl)benzyl)-3,9,15,21-tetraisobutyl-4,10,12,16,22,24-hexamethyl-1,7,13,19-tetraoxa-4,10,16,22-tetraazacyclotetracosan-2,5,8,11,14,17,20,23-octaone]
- minimal effective concentration [1]: 0.0001 to 0.001 µM
- minimal effective concentration [3]: 0.001 to 0.01 µM

SMILES: CC(C)C[C@H]1C(=O)O[C@H](Cc2cccc(Cn3cc(Br)cn3)c2)C(=O)N(C)[C@@H](CC(C)C)C(=O)O[C@H](C)C(=O)N(C)[C@@H](CC(C)C)C(=O)O[C@H](Cc2cccc(Cn3cc(Br)cn3)c2)C(=O)N(C)[C@@H](CC(C)C)C(=O)O[C@H](C)C(=O)N1C [Example 4-2, (3S,6R,9S,12R,15S,18R,21S,24R)-6,18-bis(3-((4-bromo-1H-pyrazol-1-yl)methyl)benzyl)-3,9,15,21-tetraisobutyl-4,10,12,16,22,24-hexamethyl-1,7,13,19-tetraoxa-4,10,16,22-tetraazacyclotetracosan-2,5,8,11,14,17,20,23-octaone]
- minimal effective concentration [1]: 0.0001 to 0.001 µM
- minimal effective concentration [3]: 0.001 to 0.01 µM

SMILES: CC(C)C[C@H]1C(=O)O[C@H](Cc2cccc(Cn3ccnc3Br)c2)C(=O)N(C)[C@@H](CC(C)C)C(=O)O[C@H](C)C(=O)N(C)[C@@H](CC(C)C)C(=O)O[C@H](Cc2ccc(Cn3ccnc3Br)cc2)C(=O)N(C)[C@@H](CC(C)C)C(=O)O[C@H](C)C(=O)N1C [Example 7-3, (3S,6R,9S,12R,15S,18R,21S,24R)-6-[[3-[(2-bromoimidazol-1-yl)methyl]phenyl]methyl]-18-[[4-[(2-bromoimidazol-1-yl)methyl]phenyl]methyl]-3,9,15,21-tetraisobutyl-4,10,12,16,22,24-hexamethyl-1,7,13,19-tetraoxa-4,10,16,22-tetrazacyclotetracosane-2,5,8,11,14,17,20,23-octaone]
- minimal effective concentration [1]: 0.0001 to 0.001 µM
- minimal effective concentration [3]: 0.001 to 0.01 µM

SMILES: CC(C)C[C@H]1C(=O)O[C@H](Cc2ccc(Cn3ccnc3C(F)(F)F)cc2)C(=O)N(C)[C@@H](CC(C)C)C(=O)O[C@H](C)C(=O)N(C)[C@@H](CC(C)C)C(=O)O[C@H](Cc2ccccc2)C(=O)N(C)[C@@H](CC(C)C)C(=O)O[C@H](C)C(=O)N1C [Example 8-12, (3S,6R,9S,12R,15S,18R,21S,24R)-6-benzyl-3,9,15,21-tetraisobutyl-4,10,12,16,22,24-hexamethyl-18-(4-((2-(trifluoromethyl)-1H-imidazol-1-yl)methyl)benzyl)-1,7,13,19-tetraoxa-4,10,16,22-tetraazacyclotetracosan-2,5,8,11,14,17,20,23-octaone]
- minimal effective concentration [1]: 0.0001 to 0.001 µM
- minimal effective concentration [3]: 0.001 to 0.01 µM

SMILES: CC(C)C[C@H]1C(=O)O[C@H](Cc2ccc(Cn3ccc(C#N)c3)cc2)C(=O)N(C)[C@@H](CC(C)C)C(=O)O[C@H](C)C(=O)N(C)[C@@H](CC(C)C)C(=O)O[C@H](Cc2ccc(Cn3ccc(C#N)c3)cc2)C(=O)N(C)[C@@H](CC(C)C)C(=O)O[C@H](C)C(=O)N1C [Example 9-25, 1-[[4-[[(2R,5S,8R,11S,14R,17S,20R,23S)-14-[[4-[(3-cyanopyrrol-1-yl)methyl]phenyl]methyl]-5,11,17,23-tetraisobutyl-4,8,10,16,20,22-hexamethyl-3,6,9,12,15,18,21,24-octaoxo-1,7,13,19-tetraoxa-4,10,16,22-tetrazacyclotetracos-2-yl]methyl]phenyl]methyl]pyrrole-3-carbonitrile]
- minimal effective concentration [1]: 0.0001 to 0.001 µM
- minimal effective concentration [3]: 0.001 to 0.01 µM

SMILES: CC(C)C[C@H]1C(=O)O[C@H](Cc2ccc(Cn3ncnc3-c3ccc(Cl)cc3)cc2)C(=O)N(C)[C@@H](CC(C)C)C(=O)O[C@H](C)C(=O)N(C)[C@@H](CC(C)C)C(=O)O[C@H](Cc2ccc(Cn3ncnc3-c3ccc(Cl)cc3)cc2)C(=O)N(C)[C@@H](CC(C)C)C(=O)O[C@H](C)C(=O)N1C [Example 9-58, (3S,6R,9S,12R,15S,18R,21S,24R)-6,18-bis(4-((5-(4-chlorophenyl)-1H-1,2,4-triazol-1-yl)methyl)benzyl)-3,9,15,21-tetraisobutyl-4,10,12,16,22,24-hexamethyl-1,7,13,19-tetraoxa-4,10,16,22-tetraazacyclotetracosan-2,5,8,11,14,17,20,23-octaone]
- minimal effective concentration [1]: 0.001 to 0.01 µM
- minimal effective concentration [3]: 0.01 to 0.1 µM

SMILES: CC(C)C[C@H]1C(=O)O[C@H](Cc2ccc(CN3C(=O)CSc4cccnc43)cc2)C(=O)N(C)[C@@H](CC(C)C)C(=O)O[C@H](C)C(=O)N(C)[C@@H](CC(C)C)C(=O)O[C@H](Cc2ccc(CN3C(=O)CSc4cccnc43)cc2)C(=O)N(C)[C@@H](CC(C)C)C(=O)O[C@H](C)C(=O)N1C [Example 9-61, (3S,6R,9S,12R,15S,18R,21S,24R)-3,9,15,21-tetraisobutyl-4,6,10,16,18,22-hexamethyl-12,24-bis[[4-[(3-oxopyrido[3,2-b][1,4]thiazin-4-yl)methyl]phenyl]methyl]-1,7,13,19-tetraoxa-4,10,16,22-tetrazacyclotetracosane-2,5,8,11,14,17,20,23-octaone]
- minimal effective concentration [1]: 0.001 to 0.01 µM
- minimal effective concentration [3]: 0.01 to 0.1 µM

SMILES: CC(C)C[C@H]1C(=O)O[C@H](Cc2ccc(CN3CCOc4ncccc43)cc2)C(=O)N(C)[C@@H](CC(C)C)C(=O)O[C@H](C)C(=O)N(C)[C@@H](CC(C)C)C(=O)O[C@H](Cc2ccccc2)C(=O)N(C)[C@@H](CC(C)C)C(=O)O[C@H](C)C(=O)N1C [Example 10-38, (3S,6R,9S,12R,15S,18R,21S,24R)-6-benzyl-18-[[4-(2,3-dihydropyrido[2,3-b][1,4]oxazin-1-ylmethyl)phenyl]methyl]-3,9,15,21-tetraisobutyl-4,10,12,16,22,24-hexamethyl-1,7,13,19-tetraoxa-4, 10,16,22-tetrazacyclotetracosane-2,5,8,11,14,17,20,23-octaone]
- minimal effective concentration [1]: 0.0001 to 0.001 µM
- minimal effective concentration [3]: 0.001 to 0.01 µM
